# From US20220041687A1, “A GROUP OF CHIMERIC ANTIGEN RECEPTORS (CARS)” (ST. ANNA KINDERKREBSFORSCHUNG, priority 2018, published 2022)
# Where two headings read alike, the source gives them in different places.
# Tests used:
# [1] = test system: Jurkat T cells expressing tEGFR; test: T cell activation by rcSso7d-based CARs (luciferase-based cytotoxicity assay, IFN-γ ELISA), Example 2; settings: primary human T cells, 4 hours, E:T 2:1; for cytotoxicity: binder fused to "Ser" CAR backbone (monovalent interaction)
# Experimental: Luciferase-expressing tumour cells were co-cultured with CAR T cells at an E:T cell ratio of 2:1 with 10,000 target cells/well in white round-bottom 96 well plates (Sigma Aldrich) for 4 hours at 37° C. in cytotoxicity assay medium, consisting of phenol-free RPMI (Thermo Scientific), 10% FCS, 1% L-Glutamine (Thermo Scientific) and 1% penicillin-streptomycin. Finally, remaining living cells were quantified by determination of the residual luciferase activity of the co-culture. After equilibration to room temperature for 10 minutes, luciferin was added to the cell suspension (150 μg/mL final concentration; Perkin Elmer) and luciferase activity was measured 20 minutes later using the ENSPIRE Multimode plate reader. The percentage of specific lysis was determined with the following formula:
# % specific lysis=100−((RLU from well with effector and target cell co-culture)/(RLU from well with target cells only)×100)).
# Cytokine secretion of primary CAR T cells was assessed by co-cultivation with target cells at E:T ratios of 1:1 or 2:1 in flat-bottom 96 well plates for 4 hours or 24 hours at 37° C. In some experiments, released cytokines were quantified in the supernatants from the co-culture experiments for determining cytotoxicity. The supernatants were centrifuged (1600 rpm, 7 minutes, 4° C.) to remove remaining cells and debris and were subsequently frozen at −80° C. For analysis of secreted IFN-γ, ELISA was performed using the Human IFN gamma ELISA Ready-SET-Go!® kit (eBioscience) according to the manufacturer's instructions. Measurements were conducted using the ENSPIRE Multimode plate reader.
# [2] = test system: human EGFR; test: Binding affinities of rcSso7d-based antigen binding moieties (titration on tEGFR Jurkat T cells, SPR on hEGFR-Fc); settings: comparison in words; own values only in FIG. 2; read-out: affinity of the binding moiety, stated as comparable to that of scFv 4D5-5
# Experimental: Jurkat T cells were engineered to express high levels of the respective tumour antigen. […] After washing in PBS, cells were resuspended in PBS containing 0.1% BSA (Sigma Aldrich) and incubated with varying concentrations of the binder proteins fused to sfGFP in order to determine the affinities of the antigen binding moieties towards the respective tumour antigen. After incubation for 1 hour at 4° C. while shaking, plates were centrifuged (450 g, 7 minutes, 4° C.), the supernatant was discarded and cells were acquired with a BD LSRFortessa. Cells were kept on ice to avoid endocytosis. The Kd was obtained by curve fitting using Microsoft Excel (Microsoft Corporation).
# SPR experiments were performed with a Biacore T200 instrument (GE Healthcare). All experiments were conducted in degassed and filtered PBS, pH 7.4, containing 0.1% BSA and 0.05% Tween-20 (Merck Millipore), at 25° C. hEGFR-Fc (R&D) was immobilized on a Protein A sensor chip (GE Healthcare) at a flow rate of 10 μL/min for 60 seconds at a concentration 6.67 μg/mL. To determine the affinity of rcSso7d-based antigen binding moieties, five concentrations (depending on the expected Kd of the antigen binding moiety) of the respective protein were injected at a flow rate of 30 μL/min for 15 seconds in the single-cycle kinetic mode, followed by a dissociation step (30 seconds). […]
# [3] = target: human EGFR; settings: Traxlmayr et al., J Biol Chem. 2016; cited from earlier work
# [4] = test system: Jurkat T cells expressing tHER2; test: Functional screening of affibody-based CARs, luciferase-based cytotoxicity assay, Example 4; type: cell-based, human; settings: affibody variant in CAR backbone 8ser-BB-FKBP (36V)-3z; 10 nM AP20187 or DMSO; 4 hours, E:T 2:1
# Experimental: Luciferase-expressing tumour cells were co-cultured with CAR T cells at an E:T cell ratio of 2:1 with 10,000 target cells/well in white round-bottom 96 well plates (Sigma Aldrich) for 4 hours at 37° C. in cytotoxicity assay medium, consisting of phenol-free RPMI (Thermo Scientific), 10% FCS, 1% L-Glutamine (Thermo Scientific) and 1% penicillin-streptomycin. Finally, remaining living cells were quantified by determination of the residual luciferase activity of the co-culture. After equilibration to room temperature for 10 minutes, luciferin was added to the cell suspension (150 μg/mL final concentration) and luciferase activity was measured 20 minutes later using the ENSPIRE Multimode plate reader. The percentage of specific lysis was calculated with the following formula:
# Dimerization of transgenes was induced prior to co-cultivation experiments. […] The homodimerization agent AP20187 was diluted in cell culture medium and was added at 10 nM final concentration. Addition of the vehicle control DMSO at the same concentration served as control. Cells were incubated at 37° C. for 30 minutes to ensure efficient dimerization of transgenes and subsequently used for in vitro experiments.
substance,measurement,setting,value
"E11.4.1-G25A: alanine mutant G25A of rcSso7d E11.4.1, EGFR binding moiety",cytotoxicity,[1],triggered potent cytotoxicity also upon monovalent interaction
"E11.4.1-G32A: low affinity alanine mutant G32A of rcSso7d E11.4.1, EGFR binding moiety with the lowest tested affinity",T cell activation in response to target cells,"[1]; binder fused to cysteine-containing CAR backbone (""Cys"", bivalent)",efficiently triggered T cell activation
same,T cell activation in response to target cells,"[1]; binder fused to serine-containing CAR backbone (""Ser"", monovalent)",did not or only poorly trigger the T cells
same,Kd,[2],~1100 nM
rcSso7d E11.4.1: well characterized rcSso7d-based antigen binding moiety which binds to human EGFR (Traxlmayr et al.) [reference compound],cytotoxicity,[1],triggered potent cytotoxicity also upon monovalent interaction
same,Kd,[3],19 nM
zHER2-WT: high-affinity HER2 affibody with framework mutations N23A and S33K,capacity to trigger cytotoxicity in T cells in presence or absence of AP20187,[4],triggered efficient target cell lysis independent of presence of AP20187
